Literature values in publication PMC12359172, “Cell and tissue reprogramming: Unlocking a new era in medical drug discovery” (Pharmacological Reviews, 2025).

Legend:
[1] = tested on: SMA iPSC-derived motor neurons; parameters: method as in PMID 19098894; conditions: ref [391]
[2] = parameters: method as in PMID 32392694, PMID 27490705; conditions: ref [392],[393]
[3] = tested on: YAP; parameters: method as in PMID 33888614; conditions: ref [139]
[4] = tested on: human dermal fibroblasts / primary human cardiac fibroblasts; conditions: for effect on cardiac fibroblast reprogramming: alongside MEF2C and TBX5 (MT), chemical screen of 2000 compounds, ref [472]; for reprogramming efficiency: HDF with GATA4, MEF2C, TBX5, MYOCD, NKX2-5, miR-1 and miR-133a plus small molecules, ref [468]
[5] = tested on: skin fibroblasts from patients with ALS, HFFs, FAD fibroblasts; conditions: human induced motor neuron model, chemical screen; ref [508]
[6] = tested on: iPSC-derived cardiac organoid; parameters: method as in PMID 32284552; conditions: ref [442]
[7] = parameters: method as in PMID 10066283, PMID 9704384; conditions: ref [843],[844]
[8] = tested on: Müller glia (MG); conditions: NMDA-induced injury, intraperitoneal injection as printed; ref [333]
[9] = tested on: AMD iPSC-derived RPE cells; parameters: method as in PMID 35056119, PMID 33918210; conditions: ref [431],[432]
[10] = tested on: iPSC-derived cardiomyocytes (KCNQ1/TRPM4 mutation); conditions: ref [413]

CCCC(CCC)C(=O)O [VPA, valproic acid]
drug screening outcome [1]: potential treatments | clinical trial outcome [2]: failed in clinical trials

verteporfin
fibroblast-mediated regeneration [3]: enhance fibroblast-mediated regeneration, improving mechanical strength and reducing scarring

NC[C@H]1O[C@H](O[C@H]2[C@H](O)[C@@H](O[C@H]3O[C@H](CO)[C@@H](O)[C@H](N)[C@H]3O)[C@H](N)C[C@@H]2N)[C@H](N)C[C@@H]1O [tobramycin]
drug screening outcome [1]: potential treatments

CCS(=O)(=O)N1CC(CC#N)(n2cc(-c3ncnc4[nH]ccc34)cn2)C1 [Baricitinib]
effect on cardiac fibroblast reprogramming [4]: significantly improved reprogramming efficiency and promoted spontaneous contractile activity

Cc1c[nH]c(-c2cnc(NCCNc3ccc(C#N)cn3)nc2-c2ccc(Cl)cc2Cl)n1 [CHIR99021]
reprogramming efficiency [4]: < 25%

O=C1Cc2c([nH]c3ccc(Br)cc23)-c2ccccc2N1 [Kenpaullone]
rescue of ALS-specific disease characteristics [5]: rescuing ALS-specific disease characteristics, including restoring electrophysiological activity and the ability to form NMJs

NC(=O)c1ccc(-c2nc(-c3ccc4c(c3)OCO4)c(-c3ccccn3)[nH]2)cc1 [SB431542]
effect on cardiac fibroblast reprogramming [4]: significantly improved reprogramming efficiency and promoted spontaneous contractile activity

COc1cccc2c1C(=O)c1c(O)c3c(c(O)c1C2=O)C[C@@](O)(C(=O)CO)C[C@@H]3O[C@H]1C[C@H](N)[C@H](O)[C@H](C)O1 [doxorubicin]
cardiotoxicity detected by model [6]: cardiotoxic effects

Oc1nc(-c2ccc(C(F)(F)F)cc2)nc2c1CSCC2 [Xav939]
iCM function ([4]; MST cocktail (MYOCD, SMAD6, TBX20) combined with FGF2 and XAV939, primary human cardiac fibroblasts, ref [536]): spontaneous contractions and calcium transients

CC(C)(C)c1nc2c3cc[nH]c(=O)c3c3cc(F)ccc3c2[nH]1 [JAK1 inhibitor (EMD4Biosciences; 420099)]
reprogramming efficiency [4]: < 25%

O=c1[nH]c(=O)n([C@H]2C[C@H](O)[C@@H](CO)O2)cc1Br [BrdU, bromodeoxyuridine]
developmental toxicity [7]: dose-dependent genetic and neurologic developmental defects

COCCOc1ccc(-c2cn(-c3ccccc3)c3nc[nH]c(=O)c23)cc1 [DMX-5804]
effect on Müller glia [8]: promoted MG proliferation and conversion to a retinal progenitor cell–like state

NC(=O)c1ncn([C@@H]2O[C@H](COP(=O)(O)O)[C@@H](O)[C@H]2O)c1N [5-aminoimidazole-4-carboxamide ribonucleotide]
effect on mitochondrial function [9]: improved mitochondrial function

COc1ccc(CCN(C)CCCC(C#N)(c2ccc(OC)c(OC)c2)C(C)C)cc1OC (stereo not shown) [verapamil]
drug screening outcome [10]: potential treatment

CN(C)C(=N)N=C(N)N [Metformin]
effect on mitochondrial function [9]: improved mitochondrial function
